Data: patent US5395947A, “Platinum(II) complex and processes for preparing the same” (Sunkyong Industries, Ltd., priority 1991, dated 1995)

Columns and labels:
[1] = test system: murine leukemia L1210 cells; experiment: Growth inhibition test on cultured murine leukemia L1210 cells; type: cell-based; conditions: 48 hours, 37° C., Trypan blue viability
Outline: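 Read-out is Trypan blue (0.17%) viability versus compound-free controls. Cells, 1×10^5, were cultured 48 h at 37° C under 5% CO2 in RPMI 1640/10% FCS containing various compound concentrations.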

murine leukemia L1210 = experiment: Antitumor activity test on murine leukemia L1210 in vivo; set-up: species or system male BDF1 mice; conditions: days 1, 5, 9
Outline: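 Male BDF1 mice (6 weeks, 21±3 g; n=7) received 1×10^6 leukemia cells into the peritoneum on day 0, then test compound suspended or dissolved in 0.5% CMC i.p. on days 1, 5, 9. Activity expressed as T/C %, mean survival treated versus 0.5% CMC-injected controls.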

[2] = Test for water solubility; type: physicochemical
From the text: 3. Test for water solubility
A standard plot of UV absorbance(220 nm) vs. concentration was made; and employed to determine water-solubility.
The mixture was then passed through a 0.45 micron disposable membrane filter before dilution and UV measurement.

Test for nephrotoxicity = type: in vivo, male ICR mice; conditions: 150 mg/kg i.p. once
Method: 4. Test for nephrotoxicity
The compounds of the present invention were dissolved or suspended in 0.5% CMC solution(in water) and were administered intraperitoneally one time to 8-week-old male ICR mice weighing 30±3 g. Each treatment and control groups consisted of six mice.
The administration amount of the test compound was 1.5 times the optimum dose obtained in Table 2, or more. On days 1, 4 and 8 after administration, their blood was collected under ether anesthesia for measurement of blood urea nitrogen concentration (BUN value) and creatinine concentration.
A pair of kidneys were taken and, after immediate weighing, were stored in a 10% neutral buffered formalin solution. The body weight ratio shown in Table 5 is a ratio of the body weight measured on days 1, 4 and 8 from the administration of the compound to the body weight measured on the administration day.

ICR mice = experiment: Acute toxicity test; type: in vivo; set-up: Lethality: unit not given here; conditions: for Lethality: 10080 min
Outline: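 Single i.p. administration to ICR mice (7 weeks old, both sexes, n=6/group); appearance and mortality logged over 7 days, dead animals autopsied for gross pathology.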

## CC1OC2C[NH2+][Pt-2]3([NH2+]CC2O1)[O]C(=O)C1(CCC1)C(=O)[O]3 [Example 23, cis-cyclobutane-1,1-dicarboxylato[(4S,5S)-4,5-bis(aminomethyl)-2-methyl-1,3-dioxolane]platinum(II)]
[1]
  IC50 (concentration required for 50% inhibition of growth): 1.75 µg/mL
Murine leukemia L1210; 6.2 mg/kg i.p.
  T/C (%): 108%
Murine leukemia L1210; 12.5 mg/kg i.p.
  T/C (%): 115%
Murine leukemia L1210; 25 mg/kg i.p.
  T/C (%): 150%
Murine leukemia L1210; 50 mg/kg i.p.
  T/C (%): 201%
Murine leukemia L1210; 100 mg/kg i.p.
  T/C (%): 254%
[2]; 20° C.
  Solubility in water: 22.1 mg/mL
Test for nephrotoxicity
  BUN, 1st day: 24.8 mg/100 ml
  BUN, 4th day: 32.1 mg/100 ml
  BUN, 8th day: 42.0 mg/100 ml
  Creatinine, 1st day: 0.26 mg/100 ml
  Creatinine, 4th day: 0.30 mg/100 ml
  Creatinine, 8th day: 0.28 mg/100 ml
Test for nephrotoxicity; mean ± standard error
  Kidney wt (paired weight), 1st day: 492 ± 22.7 mg
  Kidney wt (paired weight), 4th day: 535 ± 16.3 mg
  Kidney wt (paired weight), 8th day: 527 ± 13.8 mg
Test for nephrotoxicity; vs. administration day
  body weight ratio (BWR), 1st day: 0.98
  body weight ratio (BWR), 4th day: 0.96
  body weight ratio (BWR), 8th day: 0.99

## CCC1(C)OC2C[NH2+][Pt-2]3([NH2+]CC2O1)[O]CC(=O)[O]3 [Example 9, (glycolato-O,O')[(4R,5R)-4,5-bis(aminomethyl)-2-ethyl-2-methyl-1,3-dioxolane]platinum(II)]
[1]
  IC50 (concentration required for 50% inhibition of growth): 0.08 µg/mL
Murine leukemia L1210; 3.1 mg/kg i.p.
  T/C (%): 148%
Murine leukemia L1210; 6.2 mg/kg i.p.
  T/C (%): 187%
Murine leukemia L1210; 12.5 mg/kg i.p.
  T/C (%): 231%
Murine leukemia L1210; 25 mg/kg i.p.
  T/C (%): toxic
Murine leukemia L1210; 50 mg/kg i.p.
  T/C (%): toxic
[2]; water
  Solubility in water: 11.6 mg/mL
ICR mice; female, 41.3 mg/kg i.p.
  Number of dead mice for 7 days: 2/6
  Number of dead mice, 1st day: 0/6
  Number of dead mice, 4th day: 2/6
  Lethality: 0.0
ICR mice; female, 54.9 mg/kg i.p.
  Number of dead mice for 7 days: 4/6
  Number of dead mice, 1st day: 0/6
  Number of dead mice, 3rd day: 1/6
  Number of dead mice, 4th day: 3/5
  Lethality: 50.0
ICR mice; female, 71.4 mg/kg i.p.
  Number of dead mice for 7 days: 5/6
  Number of dead mice, 1st day: 0/6
  Number of dead mice, 3rd day: 1/6
  Number of dead mice, 4th day: 3/5
  Number of dead mice, 5th day: 1/2
  Lethality: 83.7
ICR mice; female, 91.8 mg/kg i.p.
  Number of dead mice for 7 days: 6/6
  Number of dead mice, 1st day: 0/6
  Number of dead mice, 3rd day: 2/6
  Number of dead mice, 4th day: 4/4
  Lethality: 100.0
ICR mice; male, 41.3 mg/kg i.p.
  Number of dead mice for 7 days: 0/6
  Number of dead mice, 1st day: 0/6
  Number of dead mice, 4th day: 2/6
  Number of dead mice, 5th day: 1/4
  Lethality: 0.0
ICR mice; male, 54.9 mg/kg i.p.
  Number of dead mice for 7 days: 4/6
  Number of dead mice, 1st day: 0/6
  Number of dead mice, 4th day: 2/6
  Number of dead mice, 5th day: 2/4
  Lethality: 66.7
ICR mice; male, 71.4 mg/kg i.p.
  Number of dead mice for 7 days: 5/6
  Number of dead mice, 1st day: 0/6
  Number of dead mice, 4th day: 1/6
  Number of dead mice, 5th day: 2/5
  Number of dead mice, 6th day: 2/3
  Lethality: 83.3
ICR mice; male, 91.8 mg/kg i.p.
  Number of dead mice for 7 days: 6/6
  Number of dead mice, 1st day: 0/6
  Number of dead mice, 2nd day: 1/6
  Number of dead mice, 3rd day: 4/5
  Number of dead mice, 4th day: 1/1
  Lethality: 100.0
